In patent US7601739B2, “Compounds having antiestrogenic and tissue selective estrogenic properties, and compounds with anti-androgenic properties for treatment of prostate cancer and androgen receptor dependent diseases” (Virgina Commonwealth University, priority 2006, dated 2009):

What was measured:
[1] = target: T1, hERα D351Y (Homo sapiens, UniProt P03372, D351Y); experiment: Transient transfection reporter assay with hERα D351Y mutant; assay type: cell-based
T1 construct: mammalian expression plasmid containing full length human ER cDNA, pCMV-hER; expressed in transfected cells
T1 sequence (P03372 1-595 D351Y): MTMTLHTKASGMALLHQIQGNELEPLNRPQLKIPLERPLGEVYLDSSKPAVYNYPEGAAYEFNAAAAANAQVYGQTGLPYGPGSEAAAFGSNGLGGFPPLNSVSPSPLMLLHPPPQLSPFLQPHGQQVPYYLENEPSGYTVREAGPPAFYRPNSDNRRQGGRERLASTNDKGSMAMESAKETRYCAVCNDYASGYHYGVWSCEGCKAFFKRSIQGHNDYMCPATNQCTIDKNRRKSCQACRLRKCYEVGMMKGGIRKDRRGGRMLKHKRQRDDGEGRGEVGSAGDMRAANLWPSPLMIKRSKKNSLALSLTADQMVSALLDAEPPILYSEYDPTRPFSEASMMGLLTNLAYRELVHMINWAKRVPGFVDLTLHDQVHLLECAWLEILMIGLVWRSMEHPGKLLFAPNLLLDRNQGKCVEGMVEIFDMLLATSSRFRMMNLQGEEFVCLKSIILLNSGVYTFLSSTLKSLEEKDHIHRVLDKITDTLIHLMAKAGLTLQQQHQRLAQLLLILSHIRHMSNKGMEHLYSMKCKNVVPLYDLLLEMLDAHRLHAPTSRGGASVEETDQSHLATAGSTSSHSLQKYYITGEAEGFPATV
Protocol: The tyrosine mutation (pCMV-D351Y) at amino acid 351 was introduced by using the Quick Change Site-Directed Mutagenesis Kit (Stratagene, La Jolla, Calif.) and pCMV-ER was used as the template. The primers constructed were as follows: 5′ primer (5′-[…]-3′) (SEQ ID NO. 9), the underlined nucleotide was changed to make the D351Y mutation) and a 3′ primer (5′-[…]-3′) (SEQ ID NO. 10).
For the transient transfection reporter assays, the cells were plated in triplicate in 12-well plates at a density of 300000 cells/well in the phenol red-free DMEM (GIBCO/BRL, Grand Island, N.Y.) supplemented with 10% charcoal-stripped fetal bovine serum (Hyclone, Logan, Utah), Penicillin (100 unit/ml)/Streptomycin ([…]), 2 mML-glutamine and 1 mM sodium Pyruvate. 24 hrs later, the cells were transfected with three plasmids by using Superfect transfection kit (Qiagen, Valencia, Calif.). For the detection of hER activity, cells were transfected with 2 g hER expression plasmid (pCMV-ER ), 6 g luciferase reporter plasmid containing estrogen receptor response element (PGL-TATA-Luc), and 600 ng normalization control, β-galactosidase reporter plasmid (pCMV ). For the detection of hER activity, cells were transfected with 3 ug hER expression plasmid (pcDNA3.1-hER), 6 g luciferase reporter plasmid containing estrogen receptor response element (PGL-TATA-Luc), and 600 ng pCMV. For determining the influence of ER's major coactivator in breast, AIB 1, 2 g pcDNA3.1-AIB1 was added into the transfection plasmid solution mentioned previously.
The transfected cells were rinsed with PBS and treated with various concentrations of test molecules and one […] (vehicle, DMSO or methanol) in phenol red-free culture medium. After incubation for further 24 hrs, the cells were washed with PBS and lysed with lysis buffer (Pierce, Rockford, Ill.). The lysate was used to determine the luciferase activity for ER's activity and the β-galactosidase activity for the normalization of transfection efficiency.
For the luciferase activity assay, 20 μl of lysate and 100 μl luciferase assay buffer (Promega, Madison, Wis.) were added into a well of 96-well plate. The luminescence was detected by using luminescence microplate reader, LumiCount (Packard, Boston, Mass.). For the β-galactosidase activity assay, […] β-galactosidase assay buffer (Clontech, Palo Alto, Calif.) were added into a well of 96-well plate. The β-galactosidase activity was measured as luminescence strength by using luminescence microplate reader, LumiCount (Packard, Boston, Mass.). The normalized reporter activity was calculated by the luciferase activity divided by that of β-galactosidase.
Amino acid 351 (D351) of hERα plays an essential role in regulating estrogenic or antiestrogenic compound's binding to hERα and the recruitment of corepressors. […] Based on this observation the hERα D351Y mutant is generated by PCR-based site directed mutagenesis method for use in the transient transfection reporter assay. The main goal of this testing is to elucidate the existence of the pure antiestrogenic property of the compounds of the invention and to determine whether the compounds estrogenic activity will increase due to the presence of hERα D351Y or not.
In this assay, DMSO was used as reference.

[2] = system: MCF-7 cells; experiment: hERα positive breast cancer cell proliferation assay; assay type: cell-based, human; details: for activity at 5 µM: Homo sapiens, MCF7, 72 h, MCF-7 cells, DMSO = 1, read-out: Relative Cancer Cell Proliferation Effects at 5 μM
Protocol: MCF-7 or MDA-MB-231 cells were inoculated into 12-well culture plates at 10000 cells in 2 ml maintained medium per well. Cells were allowed to attach to the bottom for 24 hrs incubation, then the seeding medium was removed and replaced by the experimental medium (phenol red-free DMEM supplemented with 5% charcoal-stripped fetal bovine serum and Penicillin (100 unit/ml)/Streptomycin ([…])). After 24 hr incubation, the test molecules dissolved in DMSO were added in the wells. […] The culture was continued for 3 days and the medium and tested compounds were replaced every two days. The final cell numbers were estimated with CellTiter proliferation assay kit (Promega, Madison, Wis.) by measuring the absorbance at 570 nm, which is directly proportional to the number of living cells in the culture.
MCF-7 cell line was used to perform this assay and the description of this assay as mentioned above. […] DMSO was used as reference.

[3] = system: hER; experiment: Fluorescence-based competitive binding assay for hER (displacement of fluormone ES2); set-up: species or system human; details: for Relative Binding Affinity: RBA = IC50 of tamoxifen/IC50 of test molecule, tamoxifen set at 1
Protocol: The estrogen receptor competitor assay kits (Panvera, Madison, Wis.) were used to determine the ability of test molecules to displace the fluormone, ES2, from hER -ES2 or hER -ES2 complex. Serial dilutions of each test molecule were prepared in methanol or DMSO. The recombinant hER or hER (7 nM) was preincubated with ES2 (1 nM) in screening buffer. After the preincubation, the test molecules and ER-ES2 complex solution were added into the 96-well microplate to produce a final volume of 100 μl per well. The reaction was incubated at room temperature for 1 hr and the polarization values were measured by using fluorescence microplate reader, Polarion (Tecan, Research Triangle Park, N.C.) with excitation wavelength 495 nm and emission wavelength 535 nm. The polarization value versus test molecule concentration curves was analyzed by graphfit software to generate IC50 values.
In this assay, recombinant hER and the commercial synthetic estrogen, ES2 containing fluorescence polarization property, are used. This assay is a homogenous assay. When the assay solution only contains ES2, the solution exerts weak fluorescence polarization property due to the quick rotation of free ES2 molecule. […] Addition of the antiestrogen to the ES2/hER displaces ES2 from hER and results in the whole solution exerting less fluorescence polarization property than the solution without antiestrogen.

| Compound | estrogenic activity against hERα D351Y compared with hERα wild type (FIG. 5) [1] | estrogenic effects against mutant hERα D351Y compared with DMSO (FIG. 5) [1] | activity at 5 µM [2] [%] | binding affinity for hER compared with tamoxifen [3] | Relative Binding Affinity [3] | inhibition effects against MCF-7 cell proliferation [2] | inhibition of MCF-7 cell proliferation ([2]; relative to DMSO) [%] |
| --- | --- | --- | --- | --- | --- | --- | --- |
| CCCCNC(=O)CCCCCCCCCCOCC1Cc2ccccc2CN1C(=O)c1ccc(O)cc1 (centres unmarked) [Compound 7] | do not increase | even lower than that of DMSO | 95 | highest binding affinity and higher than tamoxifen | 1.79 | – | – |
| CCCCNC(=O)CCCCCCCCCCOCC1Cc2ccccc2CN1C(=O)c1cccc(O)c1 (centres unmarked) [Compound 6] | do not increase | even lower than that of DMSO | 62 | highest binding affinity and higher than tamoxifen | 5.0 | strongest inhibition effects | 38 |
| CCCCNC(=O)CCCCCCCCCCOCC1Cc2ccccc2CN1C(=O)c1cccc(OC)c1 (centres unmarked) [Compound 4] | do not increase | even lower than that of DMSO | 70 | – | 0.192 | slightly lower inhibition effects than compound 6 | – |
